From patent publication US10654794B2, “Fused tricyclic Γ-amino acid derivative, preparation method therefor, and medical use thereof” (SICHUAN HAISO PHARMACEUTICAL CO., LTD., priority 2016, dated 2020)
Read-outs that look alike come from different tables or passages of the source.

Tests used:
[1] = Pharmacokinetic evaluation in rats; type: in vivo, Male SD rats; settings: rat; for AUC(0-inf) / half-life / bioavailability / Cmax: male, SD, plasma; for AUC(0-inf): read-out: Area under curve AUC0-inf; for half-life: read-out: Half-life t½ (converted); for bioavailability / Bioavailability F: Oral 10 mg/kg vs I.V. 5 mg/kg; for bioavailability: read-out: Bioavailability F; for Cmax: read-out: Blood Drug Level Cmax
Description: Pharmacokinetic Evaluation
Male SD rats (purchased from Vital River Laboratory Animal Technology Co., Ltd.), each weighing 180 to 240 g, were fasted overnight but allowed access to water. Three rats were administered by oral gavage at a dose of 10 mg/kg, and three rats were intravenously injected at 5 mg/kg. For the oral administration group, the compounds were formulated into 1.0 mg/mL suspensions with a 0.5% methylcellulose (MC) solution, and 200 μl blood was sampled before administration and 30 min, 1 h, 2 h, 4 h, 6 h, 8 h, 12 h and 24 h after administration. For the intravenous injection (I.V.) group, the compounds were formulated into 1.0 mg/ml solutions with physiological saline, and blood was sampled before administration and 5 min, 15 min, 30 min, 1 h, 2 h, 4 h, 8 h, 12 h and 24 h after administration. The blood samples were all anticoagulated with heparin, and centrifuged at 5500 rpm for 10 min to collect plasma, which was stored at −20° C. 10 μl plasma of rats for each of the time points was mixed with a 500 μl acetonitrile solution containing an internal standard, vortexed for 10 min, and centrifuged at 3700 rpm for 18 min. 50 μl of the supernatant was mixed with 100 μl water and vortexed for 10 min. 5 μl of the mixture was subjected to an LC-MS/MS analysis to determine the blood drug level of the parent drugs. The main pharmacokinetic parameters were analyzed using the software WinNonlin 6.3 at the non-compartment mode.

[2] = test system: pain in diabetic peripheral neuropathy; settings: patients with diabetic peripheral neuropathy; cited from earlier work

Row | Structure (SMILES) | AUC(0-inf) ([1]; iv, 5 mg/kg, I.V., 5 mg/kg) [ng·h/mL] | half-life ([1]; iv, 5 mg/kg, I.V., 5 mg/kg) [h] | bioavailability ([1]; po, 10 mg/kg) [%] | AUC(0-inf) ([1]; po, 10 mg/kg, Oral, 10 mg/kg) [ng·h/mL] | Cmax ([1]; po, 10 mg/kg, Oral, 10 mg/kg) [ng/mL] | half-life ([1]; po, 10 mg/kg, Oral, 10 mg/kg) [h] | Area under curve AUC0-inf ([1]; I.V., 5 mg/kg) [ng·h/mL] | Half-life t½ ([1]; I.V., 5 mg/kg) [h] | Bioavailability F [1] [%] | Area under curve AUC0-inf ([1]; Oral, 10 mg/kg) [ng·h/mL] | Blood Drug Level Cmax ([1]; Oral, 10 mg/kg) [ng/mL] | Half-life t½ ([1]; Oral, 10 mg/kg) [h] | proportion of patients whose pain is relieved to a great extent [2]
1 | NC[C@@]1(CC(=O)O)[C@@H]2C[C@H]3C[C@@H]2[C@@H]1C3 [Example 7, 2-(4-(aminomethyl)tricyclo[3.2.1.0^3,6]octan-4-yl)acetic acid] | 11800 | 1.2 | 97 | 23000 | 9140 | 1.1 |  |  |  |  |  |  | 
2 | NC[C@@]1(CC(=O)O)C2CC[C@H]3C[C@@H]2[C@@H]1C3 (single isomer, unassigned) [Example 5] | 8210 | 2.4 | 87 | 14200 | 4490 | 1.6 |  |  |  |  |  |  | 
3 | NC[C@@]1(CC(=O)O)[C@@H]2C[C@@H]3CC[C@H]1[C@H]2C3 (racemic) [Example 2, (±)-2-((1R,2R,3S,6R,8R)-2-(aminomethyl)tricyclo[4.2.1.0^3,8]nonan-2-yl)acetic acid benzenesulfonic acid (1:1)] |  |  |  |  |  |  | 8147 | 1.40 | 83.0 | 13473 | 3789 | 1.40 | 
4 | NC[C@@]1(CC(=O)O)[C@@H]2C[C@H]3C[C@@H]2[C@@H]1C3 [Example 8, 2-(4-(aminomethyl)tricyclo[3.2.1.0^3,6]octan-4-yl)acetic acid benzenesulfonic acid (1:1)] |  |  |  |  |  |  | 11788 | 1.20 | 107.9 | 25443 | 8004 | 2.10 | 
5 | NCC1(CC(=O)O)CCCCC1 [gabapentin] |  |  |  |  |  |  |  |  |  |  |  |  | approximately 60%
6 | NCC1(CC(=O)O)C2CCC3CC2C1C3 (stereo not shown) [Example 6] | 8210 | 2.4 | 83.2 | 13700 | 3710 | 1.4 |  |  |  |  |  |  | 
7 | NC[C@@]1(CC(=O)O)[C@@H]2C[C@@H]3CC[C@H]1[C@H]2C3 (racemic) [Example 1, (±)-2-((1R,2R,3S,6R,8R)-2-(aminomethyl)tricyclo[4.2.1.0^3,8]nonan-2-yl)acetic acid] | 6800 | 1.3 | 95 | 12900 | 3000 | 2.3 |  |  |  |  |  |  | 
